In PubChem BioAssay (NCI):
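Growth conditions: 96-well plates. Treatment: test compound, 48 hours, 5 concentrations. Analysis: linear interpolation between bracketing concentrations; unreached endpoints set to highest concentration. The concentration for 50% growth inhibition is given as GI50. TGI is the concentration that stops growth completely.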

Experiments:
Experiment in all cases: NCI tumour cell line growth inhibition, 48 h
RXF 393 renal = tested on: RXF 393 renal
HCT-116 colon = tested on: HCT-116 colon
U251 CNS = tested on: U251 CNS
SF-295 CNS = tested on: SF-295 CNS
786-0 renal = tested on: 786-0 renal
DU-145 prostate = tested on: DU-145 prostate
SNB-19 CNS = tested on: SNB-19 CNS
EKVX NSCLC = tested on: EKVX NSCLC
PC-3 prostate = tested on: PC-3 prostate
TK-10 renal = tested on: TK-10 renal

| Structure (SMILES) | TGI (RXF 393 renal) [µM] | TGI (HCT-116 colon) [µM] | TGI (U251 CNS) [µM] | TGI (SF-295 CNS) [µM] | TGI (786-0 renal) [µM] | TGI (DU-145 prostate) [µM] | TGI (SNB-19 CNS) [µM] | TGI (EKVX NSCLC) [µM] | TGI (PC-3 prostate) [µM] | TGI (TK-10 renal) [µM] | GI50 (HCT-116 colon) [µM] |
| --- | --- | --- | --- | --- | --- | --- | --- | --- | --- | --- | --- |
| CC#CC(O)(C(=O)OC1CC(C)N(C)C(C)(C)C1)C1CCCC1 (stereo unspecified) | > 100 | > 100 | > 100 | > 100 | > 100 | > 100 | > 100 | > 100 | > 100 | > 100 | – |
| COC1C(O)C(O[C@H]2CC[C@@]3(C)C(CC[C@@H]4[C@@H]3CC[C@]3(C)[C@@H](C(C)OC5OC(CO)C(O)C(O)C5O)CC[C@]43O)C2)OC(C)C1OC1OC(CO)C(O)C(O)C1O (stereo partly specified) | > 100 | > 100 | > 100 | > 100 | > 100 | > 100 | > 100 | > 100 | > 100 | > 100 | – |
| CCOC(=O)C1=CC(C)(C(=O)OCC)Nc2c(nc(N)[nH]c2=O)N1 (stereo unspecified) | > 10 | > 10 | > 10 | > 10 | > 10 | > 10 | > 10 | > 10 | > 10 | > 10 | – |
| COc1ccc(NC(C)c2ccncc2)cc1 (stereo unspecified) | > 100 | > 100 | > 100 | > 100 | > 100 | > 100 | > 100 | > 100 | > 100 | > 100 | – |
| CCN1C(=O)C(=C/C=C/c2ccc(N(CC)CC)cc2)C(=O)N(CC)C1=S | > 100 | > 100 | > 100 | > 100 | > 100 | > 100 | > 100 | > 100 | > 100 | > 100 | – |
| COc1ccc2c(c1)c(=O)c1c(NCCNCCO)ccc3c(=O)n(CCN(C)C)c(=O)n2c31 | 0.266 | 0.348 | 0.937 | 1.84 | 0.892 | 0.31 | 0.997 | 0.819 | 0.624 | 4.53 | – |
| c1ccc(C2CC(=NC3CCCCC3)Nc3ccccc3N2)cc1 (stereo unspecified) | > 100 | > 100 | > 100 | > 100 | > 100 | > 100 | > 100 | > 100 | > 100 | > 100 | – |
| Nc1ccc(-c2nn3c(COc4ccc(Cl)cc4)nnc3s2)cc1 | > 100 | > 100 | > 100 | > 100 | > 100 | > 100 | > 100 | > 100 | > 100 | > 100 | 34.8 |
| O=C1C=CC(=O)C(CNc2ccc(C(=O)OCc3ccccc3)cc2)=C1 | 8.54 | 18.2 | 19.9 | 34.5 | 13.6 | 25.1 | 26.5 | 23.7 | 13.4 | 14.9 | – |
| Clc1nncc2sc(-c3ccccc3)nc12 | 50.7 | 48.9 | > 53.2 | > 77.4 | > 100 | 31.8 | 51.4 | 12.5 | > 58.2 | > 100 | – |
| COP(=O)(OC)C(Nc1ccc(Cc2ccc(NC(c3ccco3)P(=O)(OC)OC)cc2)cc1)c1ccco1 (stereo unspecified) | 19.9 | > 100 | 21.4 | 82.2 | > 100 | > 100 | 71.3 | 94.4 | > 100 | 29.3 | – |
| C/C(=N\Nc1nc2ccccc2s1)c1ccc2ccccc2n1 | 73.3 | > 100 | > 100 | > 100 | > 100 | > 100 | > 100 | > 100 | > 100 | > 100 | – |
| CCOC(=O)c1sc2ncnc(N)c2c1C | 71.3 | > 100 | > 100 | > 100 | > 100 | > 100 | > 100 | > 100 | > 100 | > 100 | – |
| O=S1(=O)c2cnccc2NC(=NCc2ccccc2)N1c1ccccc1 | > 100 | > 100 | > 100 | > 100 | > 100 | > 100 | > 100 | > 100 | > 100 | > 100 | – |
| O=C(OCC1OC(n2nc(Cn3nnc(-c4cccnc4)n3)n(-c3cccc4ccccc34)c2=S)C(OC(=O)c2ccccc2)C1OC(=O)c1ccccc1)c1ccccc1 (stereo unspecified) | > 100 | > 100 | > 100 | > 100 | > 100 | > 100 | > 100 | > 100 | > 100 | > 100 | – |
| COc1ccc(OC)c2sc(N3C(=O)/C(=C/c4cccc([N+](=O)[O-])c4)N=C3c3ccccc3)nc12 | > 100 | > 100 | > 100 | > 100 | > 100 | > 100 | > 100 | > 100 | > 100 | > 100 | – |

| Structure (SMILES) | TGI (RXF 393 renal) [µM] | TGI (HCT-116 colon) [µM] | TGI (U251 CNS) [µM] | TGI (SF-295 CNS) [µM] | TGI (786-0 renal) [µM] | TGI (DU-145 prostate) [µM] | TGI (SNB-19 CNS) [µM] | TGI (EKVX NSCLC) [µM] | TGI (PC-3 prostate) [µM] | TGI (TK-10 renal) [µM] | GI50 (HCT-116 colon) [µM] |
| --- | --- | --- | --- | --- | --- | --- | --- | --- | --- | --- | --- |
| C[C@]12CC[C@@H]3c4ccc(O)cc4CC[C@H]3[C@@H]1C/C(=C\c1ccc(C#N)cc1)C2=O | 52.6 | > 100 | > 100 | > 100 | > 100 | > 100 | > 100 | > 100 | > 100 | > 100 | – |
| O=C(O)CN(CC(=O)O)C(C(=O)O)c1ccccc1 (stereo unspecified) | > 100 | > 100 | > 100 | > 100 | > 100 | > 100 | > 100 | > 100 | > 100 | > 100 | – |
| CCOC(=O)c1ccc(Nc2nc3ccc(C(F)(F)F)cc3nc2C(=O)OCC)cc1 | > 100 | > 100 | > 100 | > 100 | > 100 | > 100 | > 100 | > 100 | > 100 | > 100 | – |
| Cc1cc(C)nc(NS(=O)(=O)c2ccc(NC(=O)c3cccc4c(NNc5ccc(S(=O)(=O)N=C(N)N)cc5)c5ccccc5nc34)cc2)n1 | > 50 | > 50 | > 50 | > 50 | > 50 | > 50 | > 50 | > 50 | > 50 | > 50 | – |
| CCN(CC)CCO/N=C1\CC[C@H]2[C@@H]3CCc4cc(OC)ccc4[C@H]3CC[C@]12C | 3.92 | 2.92 | 11.6 | 3.78 | 3.27 | 16.7 | 25 | 9.76 | 9.29 | 15.9 | – |
| O=c1c2ccccc2sc2ccccc12 | > 100 | > 100 | > 100 | > 100 | > 100 | > 100 | > 100 | > 100 | > 100 | > 100 | – |
| C[C@H]1[C@H](C)CC[C@]2(C(=O)OC3OC(CO)C(O)C(O)C3O)CC[C@]3(C)C(=CC[C@@H]4[C@@]5(C)C[C@H]6OC(=O)c7cc(O)c(O)c(O)c7-c7c(cc(O)c(O)c7O)C(=O)O[C@@H]6C(CO)(CO)[C@@H]5CC[C@]43C)[C@H]12 (stereo partly specified) | > 100 | > 100 | 42.2 | > 100 | > 52.2 | > 100 | > 100 | > 100 | > 100 | > 100 | – |
| O=S1SC(=S)C2C=CC=CC21 (stereo unspecified) | > 100 | > 100 | > 100 | > 100 | > 100 | > 100 | > 100 | > 100 | > 100 | > 100 | – |
| C[n+]1c(/C=C/c2ccc(O)c3ncccc23)[se]c2ccccc21 | 37.8 | 11.4 | 16.3 | 25.1 | 24.4 | 16.8 | 51.3 | 28 | 12.7 | 10.9 | – |
| CC(C)[Si](OC/C(=C/COC(C)(C)C)[C@H]1CC=C(C(=O)c2ccccc2N2CN(C)C(=O)N(C)C2)C1)(C(C)C)C(C)C | 17.5 | 4.97 | 23 | 28.9 | 17.9 | 29.9 | 24.9 | 30.3 | 18.1 | 24.2 | – |
| COc1nc2c(N3CCCC3)nc(N3CCNCC3)nc2nc1NCc1ccccc1 | 2.73 | 2.63 | 3.5 | 3.35 | 2.66 | 12.3 | 4.19 | 10.8 | 6.42 | 5.78 | – |
| C(=C\c1ccccc1)/COc1ccccc1C(N1CCOCC1)n1nc2ccccc2n1 (stereo unspecified) | 19.4 | 22.8 | 17.6 | 28.7 | 15.8 | 63.3 | > 63.1 | 49.6 | 10.9 | 32.4 | – |
| CCOP(=O)(OCC)OC1CC(n2cc(C)c(=O)n(C)c2=O)OC1CO[Si](C)(C)C(C)(C)C (stereo unspecified) | > 100 | > 100 | > 100 | > 100 | > 100 | > 100 | > 100 | 68.4 | > 100 | > 100 | – |
| CC(C)C1=C(O)C2=C(C(=O)C1=O)C1(C)CCCC(C)(C)C1C(O)C2OC=O (stereo unspecified) | 20.2 | 20.3 | 17.1 | 29.3 | 19 | 19.1 | 31.7 | 21.7 | 30.6 | 26.2 | – |
| Cc1cc(O)c(-c2cc(O)c(C)cc2O)cc1O | 5.93 | 21.7 | 30.3 | 31.2 | 8.55 | 28.5 | 40.2 | 28.7 | 27.6 | 16 | – |
| O=C1C(C(O)(C(F)(F)F)C(F)(F)F)CCC1C(O)(C(F)(F)F)C(F)(F)F (stereo unspecified) | 26 | 13.1 | 99.5 | 21 | > 38.8 | > 100 | > 100 | > 100 | 98.3 | > 100 | – |
